Data on 33 compounds can be found in patent US20100113540A1, “Azole and Thiazole Derivatives and Their Use” (ARGENTA DISCOVERY LIMITED, priority 2005, published 2010).

Structures can show the parent of a compound that is named as a salt.

The target of the experiment is T1, M3 muscarinic receptor (Homo sapiens, UniProt P20309).
T1 construct: purchased
T1 sequence (P20309 whole entry): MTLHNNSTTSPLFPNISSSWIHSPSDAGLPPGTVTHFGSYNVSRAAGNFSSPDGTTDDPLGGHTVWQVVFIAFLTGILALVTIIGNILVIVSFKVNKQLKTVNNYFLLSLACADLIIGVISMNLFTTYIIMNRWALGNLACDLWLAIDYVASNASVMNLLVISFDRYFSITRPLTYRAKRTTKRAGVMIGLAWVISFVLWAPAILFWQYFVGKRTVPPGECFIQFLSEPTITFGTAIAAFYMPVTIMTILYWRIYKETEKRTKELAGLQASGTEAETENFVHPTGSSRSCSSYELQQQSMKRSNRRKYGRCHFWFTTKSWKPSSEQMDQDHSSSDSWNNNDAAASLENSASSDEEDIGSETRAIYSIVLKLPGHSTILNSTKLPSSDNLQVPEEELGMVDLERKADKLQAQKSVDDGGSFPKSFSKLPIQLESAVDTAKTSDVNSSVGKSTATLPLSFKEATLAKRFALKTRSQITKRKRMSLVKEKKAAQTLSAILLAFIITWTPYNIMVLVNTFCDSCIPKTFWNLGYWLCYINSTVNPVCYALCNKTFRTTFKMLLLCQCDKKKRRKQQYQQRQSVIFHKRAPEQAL
Nature of the experiment: Muscarinic receptor radioligand binding assay ([3H]-NMS), M3. To be noted: cell membranes expressing human M3 receptor. As for the experimental part: The inhibitory effects of compounds of the present invention at the M3 muscarinic receptor and (in the case of Example 77) the β2 adrenergic receptor, were determined by the following binding assays:
Radioligand binding studies utilising [^3H]-N-methyl scopolamine ([^3H]-NMS) and commercially available cell membranes expressing the human muscarinic receptors (M2 and M3) were used to assess the affinity of muscarinic antagonists for M2 and M3 receptors. Membranes in TRIS buffer were incubated in 96-well plates with [^3H]-NMS and M3 antagonist at various concentrations for 3 hours. Membranes and bound radioligand were then harvested by filtration and allowed to dry overnight. Scintillation fluid was then added and the bound radioligand counted using a Can berra Packard Topcount scintillation counter
Broadly, the Ki is the equilibrium dissociation constant of an inhibitor or competing ligand from its target. For the compound `C[N+](C)(CCOc1ccccc1)Cc1cnc([C@](O)(c2ccccc2)C2CCCCC2)o1` [Example 49, [2-((R)-cyclohexyl-hydroxy-phenyl-methyl)-oxazol-5-ylmethyl]-dimethyl-(2-phenoxy-ethyl)-ammonium formate], the Ki is under 1 nM.
In turn, `CN(C)Cc1cnc(C(c2ccccc2)c2ccccc2)o1` [Example 73, (2-Benzhydryl-oxazol-5-ylmethyl)-dimethyl-amine] yielded a Ki of over 10 nM.
Next, `C[N+](C)(CCCOc1ccccc1)Cc1cnc(C(c2ccccc2)c2ccccc2)o1` [Example 74, (2-Benzhydryl-oxazol-5-ylmeth-dimethyl-(3-phenoxy-propyl)-ammonium bromide]: over 10 nM; `CN(CCCOc1ccccc1)Cc1cnc([C@@](O)(c2ccccc2)C2CCCCC2)o1` (single isomer, unassigned) [Example 14]: over 10 nM.
Compound `C[N+](C)(CCCCc1ccccc1)Cc1cnc([C@](O)(c2ccccc2)C2CCCCC2)o1` [Example 45, [2-((R)-Cyclohexyl-hydroxy-phenyl-methyl)-oxazol-5-ylmethyl]-dimethyl-(4-phenyl-butyl)-ammonium bromide] returned a Ki of under 1 nM.
Turning to `CN(C)Cc1cnc(C(C)(c2ccccc2)c2ccccc2)o1` [Example 30, [2-(1,1-Diphenyl-ethyl)-oxazol-5-ylmethyl]-dimethyl-amine], the Ki is over 10 nM.
Next, `C[N+](C)(CCCOc1ccccc1)CCc1cnc(C(O)(c2ccccc2)C2CCCCC2)o1` (single isomer, unassigned) [Example 68, {2-[2-(Cyclohexyl-hydroxy-phenyl-methyl)-oxazol-5-yl]-ethyl}-dimethyl-(3-phenoxy-propyl)-ammonium bromide]: 1 to 10 nM.
`Cc1cccc(C[N+](C)(C)Cc2cnc([C@](O)(c3ccccc3)C3CCCCC3)o2)n1` [Example 35, [2-((R)-cyclohexyl-hydroxy-phenyl-methyl)-oxazol-5-ylmethyl]-dimethyl-(6-methyl-pyridin-2-ylmethyl)-ammonium formate] came in with a Ki of 1 to 10 nM.
In the case of `C[N+](C)(CCCCOc1ccccc1)Cc1cnc([C@](O)(c2ccccc2)C2CCCCC2)o1` [Example 43, [2-((R)-Cyclohexyl-hydroxy-phenyl-methyl)-oxazol-5-ylmethyl]-dimethyl-(4-phenoxy-butyl)-ammonium bromide] it was under 1 nM; in that of `C[N+](C)(CCCOc1ccccc1)Cc1cnc([C@@](O)(c2ccccc2)C2CCCC2)o1` (stereo in doubt) [Example 36, [2-(Cyclopentyl-hydroxy-phenyl-methyl)-oxazol-5-ylmethyl]-dimethyl-(3-phenoxy-propyl)-ammonium bromide], under 1 nM; in that of `C[N+](C)(CCCOc1ccc(F)cc1)Cc1cnc([C@](O)(c2ccccc2)C2CCCCC2)o1` [Example 46, [2-((R)-Cyclohexyl-hydroxy-phenyl-methyl)-oxazol-5-ylmethyl]-[3-(4-fluoro-phenoxy)-propyl]-dimethyl-ammonium bromide], under 1 nM.
The compound `C[N+](C)(CCCOc1ccccc1)CCc1cnc(C(O)(c2ccccc2)c2ccccc2)o1` [Example 72, {2-[2-(Hydroxy-diphenyl-methyl)-oxazol-5-yl]-ethyl}-dimethyl-(3-phenoxy-propyl)-ammonium bromide] displayed a Ki of under 1 nM.
As to `CN(C)CCc1cnc(C(O)(c2ccccc2)C2CCCCC2)o1` (single isomer, unassigned) [Example 66], the Ki is 1 to 10 nM.
In the case of `C[N+](C)(Cc1ccccc1)Cc1cnc([C@](O)(c2ccccc2)C2CCCC2)o1` [Example 59, Benzyl-[2-(cyclopentyl-hydroxy-phenyl-methyl)-oxazol-5-ylmethyl]-dimethyl-ammonium bromide] it was 1 to 10 nM; in that of `C[N+](C)(CCCOc1ccccc1)Cc1cnc(C(O)(c2ccccc2)c2ccccc2)o1` [Example 2, [2-(Hydroxy-diphenyl-methyl)-oxazol-5-ylmethyl]-dimethyl-(3-phenoxy-propyl)-ammonium formate], under 1 nM.
In the case of `C[N+](C)(CCOCc1ccccc1)Cc1cnc([C@](O)(c2ccccc2)C2CCCCC2)o1` [Example 44, (2-Benzyloxy-ethyl)-[2-((R)-cyclohexyl-hydroxy-phenyl-methyl)-oxazol-5-ylmethyl]-dimethyl-ammonium bromide] it was under 1 nM; in that of `CN(C)CCc1cnc(C(O)(c2ccccc2)C2CCCCC2)o1` (single isomer, unassigned) [Example 67], under 1 nM; in that of `CC(C)=CCC[N+](C)(C)Cc1cnc([C@](O)(c2ccccc2)C2CCCCC2)o1` [Example 33, [2-((R)-Cyclohexyl-hydroxy-phenyl-methyl)-oxazol-5-ylmethyl]-dimethyl-(4-methyl-pent-3-enyl)-ammonium bromide], under 1 nM.
Turning to `C[N+](C)(CCCOc1ccc(Cl)c(Cl)c1)Cc1cnc([C@](O)(c2ccccc2)C2CCCCC2)o1` [Example 57, [2-((R)-Cyclohexyl-hydroxy-phenyl-methyl)-oxazol-5-ylmethyl]-[3-(3,4-dichloro-phenoxy)-propyl]-dimethyl-ammonium bromide], the Ki was under 1 nM.
In the case of `Cc1ccc(OCCC[N+](C)(C)Cc2cnc([C@](O)(c3ccccc3)C3CCCCC3)o2)cc1` [Example 55, [2-((R)-Cyclohexyl-hydroxy-phenyl-methyl)-oxazol-5-ylmethyl]-dimethyl-(3-p-tolyloxy-propyl)-ammonium bromide], the Ki is under 1 nM.
Take `COC(=O)c1ccc(OCCC[N+](C)(C)Cc2cnc([C@](O)(c3ccccc3)C3CCCCC3)o2)cc1` [Example 53, [2-((R)-Cyclohexyl-hydroxy-phenyl-methyl)-oxazol-5-ylmethyl]-[3-(4-methoxycarbonyl-phenoxy)-propyl]-dimethyl-ammonium bromide]: the Ki is 1 to 10 nM.
In the case of `COC(c1ccccc1)(c1ccccc1)c1ncc(C[N+](C)(C)CCCOc2ccccc2)o1` [Example 76, [2-(Methoxy-diphenyl-methyl)-oxazol-5-ylmethyl]-dimethyl-(3-phenoxy-propyl)-ammonium bromide] it was over 10 nM; in that of `C[N+](C)(CCCOc1ccccc1)Cc1cnc(C(O)(c2ccccc2)c2ccccc2)s1` [Example 79, [2-(Hydroxydiphenylmethyl)thiazol-5-ylmethyl]dimethyl-(3-phenoxypropyl)ammonium bromide], under 1 nM; in that of `C[N+](C)(CCCOc1ccccc1)CCc1cnc(C(O)(c2ccccc2)C2CCCCC2)o1` (stereo not drawn) [Example 65, {2-[2-(Cyclohexyl-hydroxy-phenyl-methyl)-oxazol-5-yl]-ethyl}-dimethyl-(3-phenoxy-propyl)-ammonium bromide], under 1 nM.
In the case of `CN(CCCCCCCC[N+](C)(C)Cc1cnc([C@](O)(c2ccccc2)C2CCCCC2)o1)C(=O)OC(C)(C)C` [Example 47, [8-(tert-butoxycarbonyl-methyl-amino)-octyl]-[2-((R)-cyclohexyl-hydroxy-phenyl-methyl)-oxazol-5-ylmethyl]-dimethyl-ammonium methanesulfonate] it was 1 to 10 nM.
Next, `CN(C)Cc1cnc(C(O)(c2ccccc2)C2CCCCC2)o1` (stereo not drawn) [Example 4, Cyclohexyl-(5-dimethylaminomethyl-oxazol-2-yl)-phenyl-methanol]: under 1 nM; `CN(CCCOc1ccccc1)Cc1cnc([C@](O)(c2ccccc2)C2CCCCC2)o1` (single isomer, unassigned) [Example 15]: 1 to 10 nM; `CNCc1ccc(CC[N+](C)(C)Cc2cnc([C@](O)(c3ccccc3)C3CCCCC3)o2)cc1` [Example 62, [2-((R)-cyclohexyl-hydroxy-phenyl-methyl)-oxazol-5-ylmethyl]-dimethyl-[2-(4-methylaminomethyl-phenyl)-ethyl]-ammonium methanesulfonate hydrochloride]: under 1 nM.
`C[N+](C)(CCCOc1ccccc1)Cc1cnc([C@@](O)(c2ccccc2)C2CCCCC2)o1` [Example 7, [2-((S)-Cyclohexyl-hydroxy-phenyl-methyl)-oxazol-5-ylmethyl]-dimethyl-(3-phenoxy-propyl)-ammonium bromide] had a Ki of 1 to 10 nM.
Regarding `C[N+](C)(CCCOc1ccccc1)CCc1cnc(C(O)(c2ccccc2)C2CCCCC2)o1` (single isomer, unassigned) [Example 69, {2-[2-(Cyclohexyl-hydroxy-phenyl-methyl)-oxazol-5-yl]-ethyl}-dimethyl-(3-phenoxy-propyl)-ammonium bromide], the inhibitory constant (Ki) is under 1 nM.
In turn, `CN(Cc1ccccc1)Cc1cnc([C@@](O)(c2ccccc2)C2CCCC2)o1` (single isomer, unassigned) [Example 29, {5-[(Benzyl-methyl-amino)-methyl]-oxazol-2-yl}-cyclopentyl-phenyl-methanol] gave a Ki of over 10 nM.
The compound `CN(Cc1ccc(CC[N+](C)(C)Cc2cnc([C@](O)(c3ccccc3)C3CCCCC3)o2)cc1)C(=O)OC(C)(C)C` [Example 50, (2-{4-[(Tert-butoxycarbonyl-methyl-amino)-methyl]-phenyl}-ethyl)-[2-((R)-cyclohexyl-hydroxy-phenyl-methyl)-oxazol-5-ylmethyl]-dimethyl-ammonium methanesulfonate] showed a Ki of over 10 nM.
Turning to `C[N+](C)(CCCOc1ccccc1)Cc1cnc([C@](O)(c2ccccc2)C2CCCC2)o1` [Example 37, [2-(Cyclopentyl-hydroxy-phenyl-methyl)-oxazol-5-ylmethyl]-dimethyl-(3-phenoxy-propyl)-ammonium bromide], the Ki is under 1 nM.
